Results published in patent publication US4138554A, “7-[D-α-(4-Hydroxy-1,5-naphthyridine-3-carboxamido)-α-phenyl (and p-hydroxyphenyl)acetamido]-3-carbamoyloxymethyl-3-cephem-4-carboxylic acids” (priority 1977, dated 1979).
Read-outs that look alike come from different tables or passages of the source.

Columns and labels:
Pseudomonas aeruginosa = experiment: MIC by agar dilution against 61 strains of Pseudomonas aeruginosa, secondary evaluation; format: cell-based; settings: Pseudomonas aeruginosa, read-out: MIC
Outline: (§1)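 Steers' apparatus delivers inocula onto Mueller-Hinton agar containing serial two-fold dilutions; MIC is recorded per strain.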

E. coli Juhl = experiment: Median curative dose in mice, infection with E. coli Juhl; format: in vivo; settings: Escherichia coli, sc; subcutaneous injection in mice, E. coli Juhl, Table 4; read-out: Median Curative Dose (PD50)
From the text: Median Curative Dose in Mgm./Kg.
Upon Subcutaneous Injection in Mice

P. vulgaris = experiment: MIC by serial two-fold agar dilution (Mueller-Hinton agar), P. vulgaris; format: cell-based; settings: Proteus vulgaris; P. vulgaris, Table 1; read-out: MIC
Outline: (§2)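 Compounds were diluted two-fold serially into Mueller-Hinton agar, then organisms were applied using Steers' apparatus and MICs read. The primary panel comprised 31 test organisms, and the secondary evaluation 61 strains of P. aeruginosa.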

S. enteritidis = experiment: MIC by serial two-fold agar dilution (Mueller-Hinton agar), S. enteritidis; format: cell-based; settings: Salmonella enterica; S. enteritidis, Table 1; read-out: MIC
Outline: as §2

P. morganii = experiment: MIC by serial two-fold agar dilution (Mueller-Hinton agar), P. morganii; format: cell-based; settings: Morganella morganii; P. morganii, Table 1; read-out: MIC
Outline: as §2

E. cloacae = experiment: MIC by serial two-fold agar dilution (Mueller-Hinton agar), E. cloacae; format: cell-based; settings: Enterobacter cloacae, Table 1
Outline: as §1

Q: `NC(=O)OCC1=C(C(=O)O)N2C(=O)C(NC(=O)[C@H](NC(=O)c3cnc4cccnc4c3O)c3ccccc3)[C@H]2SC1` (stereo partly drawn) [BB-S520, Sodium 7-[D-α-(4-hydroxy-1,5-naphthyridine-3-carboxamido)-α-phenylacetamido]-3-carbamoyloxymethyl-3-cephem-4-carboxylate] was tested. Which MIC (Pseudomonas aeruginosa; BBRI Pa-No. 31, Table 7) did it give?
A: 0.8 µg/mL

Q: What about the MIC (Pseudomonas aeruginosa; BBRI Pa-No. 32, Table 2) of the same molecule?
A: 3.1 µg/mL

Q: What about the MIC (Pseudomonas aeruginosa; BBRI Pa-No. 32, Table 7) of the same molecule?
A: 1.6 µg/mL

Q: And the MIC (Pseudomonas aeruginosa; BBRI Pa-No. 33, Table 2)?
A: 12.5 µg/mL

Q: What about the MIC (Pseudomonas aeruginosa; BBRI Pa-No. 33, Table 7) of the same molecule?
A: 1.6 µg/mL

Q: What about the MIC (Pseudomonas aeruginosa; BBRI Pa-No. 34, Table 2) of the same molecule?
A: 3.1 µg/mL

Q: And the MIC (Pseudomonas aeruginosa; BBRI Pa-No. 34, Table 7)?
A: 1.6 µg/mL

Q: And the MIC (Pseudomonas aeruginosa; BBRI Pa-No. 35, Table 2)?
A: 12.5 µg/mL

Q: And the MIC (Pseudomonas aeruginosa; BBRI Pa-No. 35, Table 7)?
A: 6.3 µg/mL

Q: What about the MIC (Pseudomonas aeruginosa; BBRI Pa-No. 36, Table 2) of the same molecule?
A: 0.4 µg/mL

Q: What about the MIC (Pseudomonas aeruginosa; BBRI Pa-No. 36, Table 7) of the same molecule?
A: < 0.2 µg/mL

Q: What about the MIC (Pseudomonas aeruginosa; BBRI Pa-No. 37, Table 2) of the same molecule?
A: 3.1 µg/mL

Q: And the MIC (Pseudomonas aeruginosa; BBRI Pa-No. 37, Table 7)?
A: 3.1 µg/mL

Q: What about the MIC (Pseudomonas aeruginosa; BBRI Pa-No. 38, Table 2) of the same molecule?
A: 6.3 µg/mL

Q: And the MIC (Pseudomonas aeruginosa; BBRI Pa-No. 38, Table 7)?
A: 6.3 µg/mL

Q: What about the MIC (Pseudomonas aeruginosa; BBRI Pa-No. 39, Table 2) of the same molecule?
A: 3.1 µg/mL

Q: And the MIC (Pseudomonas aeruginosa; BBRI Pa-No. 39, Table 7)?
A: 1.6 µg/mL

Q: What about the MIC (Pseudomonas aeruginosa; BBRI Pa-No. 41, Table 2) of the same molecule?
A: 3.1 µg/mL

Q: What about the MIC (Pseudomonas aeruginosa; BBRI Pa-No. 41, Table 7) of the same molecule?
A: 3.1 µg/mL

Q: And the MIC (Pseudomonas aeruginosa; BBRI Pa-No. 42, Table 2)?
A: 6.3 µg/mL

Q: What about the MIC (Pseudomonas aeruginosa; BBRI Pa-No. 42, Table 7) of the same molecule?
A: 1.6 µg/mL

Q: And the MIC (Pseudomonas aeruginosa; BBRI Pa-No. 43, Table 2)?
A: 6.3 µg/mL

Q: And the MIC (Pseudomonas aeruginosa; BBRI Pa-No. 43, Table 7)?
A: 3.1 µg/mL

Q: And the MIC (Pseudomonas aeruginosa; BBRI Pa-No. 44 (unnamed strain), Table 7)?
A: 3.1 µg/mL

Q: And the MIC (Pseudomonas aeruginosa; BBRI Pa-No. 44, Table 2)?
A: 6.3 µg/mL

Q: What about the MIC (Pseudomonas aeruginosa; BBRI Pa-No. 51, Table 2) of the same molecule?
A: 3.1 µg/mL

Q: And the MIC (Pseudomonas aeruginosa; BBRI Pa-No. 51, Table 7)?
A: 1.6 µg/mL

Q: And the MIC (Pseudomonas aeruginosa; BBRI Pa-No. 52, Table 2)?
A: 3.1 µg/mL

Q: And the MIC (Pseudomonas aeruginosa; BBRI Pa-No. 52, Table 7)?
A: 3.1 µg/mL

Q: And the MIC (Pseudomonas aeruginosa; BBRI Pa-No. 53, Table 2)?
A: 3.1 µg/mL

Q: And the MIC (Pseudomonas aeruginosa; BBRI Pa-No. 53, Table 7)?
A: 1.6 µg/mL

Q: What about the MIC (Pseudomonas aeruginosa; BBRI Pa-No. 54, Table 2) of the same molecule?
A: 3.1 µg/mL

Q: What about the MIC (Pseudomonas aeruginosa; BBRI Pa-No. 54, Table 7) of the same molecule?
A: 1.6 µg/mL

Q: And the MIC (Pseudomonas aeruginosa; BBRI Pa-No. 55, Table 2)?
A: 3.1 µg/mL

Q: And the MIC (Pseudomonas aeruginosa; BBRI Pa-No. 55, Table 7)?
A: 3.1 µg/mL

Q: What about the MIC (Pseudomonas aeruginosa; BBRI Pa-No. 56, Table 2) of the same molecule?
A: 3.1 µg/mL

Q: What about the MIC (Pseudomonas aeruginosa; BBRI Pa-No. 56, Table 7) of the same molecule?
A: 3.1 µg/mL

Q: And the MIC (Pseudomonas aeruginosa; BBRI Pa-No. 57, Table 2)?
A: 3.1 µg/mL

Q: And the MIC (Pseudomonas aeruginosa; BBRI Pa-No. 57, Table 7)?
A: 1.6 µg/mL

Q: What about the MIC (Pseudomonas aeruginosa; BBRI Pa-No. 58, Table 2) of the same molecule?
A: 6.3 µg/mL

Q: And the MIC (Pseudomonas aeruginosa; BBRI Pa-No. 58, Table 7)?
A: 3.1 µg/mL

Q: And the MIC (Pseudomonas aeruginosa; BBRI Pa-No. 59, Table 2)?
A: 6.3 µg/mL

Q: And the MIC (Pseudomonas aeruginosa; BBRI Pa-No. 59, Table 7)?
A: 1.6 µg/mL

Q: What about the MIC (Pseudomonas aeruginosa; BBRI Pa-No. 60, Table 2) of the same molecule?
A: 3.1 µg/mL

Q: And the MIC (Pseudomonas aeruginosa; BBRI Pa-No. 60, Table 7)?
A: 1.6 µg/mL

Q: What about the MIC (Pseudomonas aeruginosa; BBRI Pa-No. 61, Table 2) of the same molecule?
A: 6.3 µg/mL

Q: What about the MIC (Pseudomonas aeruginosa; BBRI Pa-No. 61, Table 7) of the same molecule?
A: 1.6 µg/mL

Q: What about the MIC (Pseudomonas aeruginosa; BBRI Pa-No. 62, Table 2) of the same molecule?
A: 6.3 µg/mL

Q: And the MIC (Pseudomonas aeruginosa; BBRI Pa-No. 62, Table 7)?
A: 50 µg/mL

Q: What about the MIC (Pseudomonas aeruginosa; BBRI Pa-No. 64, Table 2) of the same molecule?
A: 3.1 µg/mL

Q: What about the MIC (Pseudomonas aeruginosa; BBRI Pa-No. 64, Table 7) of the same molecule?
A: 3.1 µg/mL

Q: And the MIC (Pseudomonas aeruginosa; BBRI Pa-No. 65, Table 2)?
A: 3.1 µg/mL

Q: And the MIC (Pseudomonas aeruginosa; BBRI Pa-No. 65, Table 7)?
A: 1.6 µg/mL

Q: And the MIC (Pseudomonas aeruginosa; BBRI Pa-No. 66, Table 2)?
A: 3.1 µg/mL

Q: And the MIC (Pseudomonas aeruginosa; BBRI Pa-No. 66, Table 7)?
A: 1.6 µg/mL

Q: What about the MIC (Pseudomonas aeruginosa; BBRI Pa-No. 67, Table 2) of the same molecule?
A: 6.3 µg/mL

Q: And the MIC (Pseudomonas aeruginosa; BBRI Pa-No. 67, Table 7)?
A: 3.1 µg/mL

Q: What about the MIC (Pseudomonas aeruginosa; BBRI Pa-No. 68, Table 2) of the same molecule?
A: 6.3 µg/mL

Q: And the MIC (Pseudomonas aeruginosa; BBRI Pa-No. 68, Table 7)?
A: 3.1 µg/mL

Q: What about the MIC (Pseudomonas aeruginosa; BBRI Pa-No. 69, Table 2) of the same molecule?
A: 12.5 µg/mL

Q: And the MIC (Pseudomonas aeruginosa; BBRI Pa-No. 69, Table 7)?
A: 6.3 µg/mL

Q: What about the MIC (Pseudomonas aeruginosa; BBRI Pa-No. 70, K-Ps102 (CR-102), Table 2) of the same molecule?
A: 3.1 µg/mL

Q: What about the MIC (Pseudomonas aeruginosa; BBRI Pa-No. 70, K-Ps102(CR-102), Table 7) of the same molecule?
A: 1.6 µg/mL

Q: What about the MIC (Pseudomonas aeruginosa; GN315, BBRI Pa-No. 27, GN315, Table 2) of the same molecule?
A: 3.1 µg/mL

Q: And the MIC (Pseudomonas aeruginosa; GN315, BBRI Pa-No. 27, GN315, Table 7)?
A: 1.6 µg/mL

Q: What about the MIC (Pseudomonas aeruginosa; GN4925, BBRI Pa-No. 44, GN4925, Table 7) of the same molecule?
A: 6.3 µg/mL

Q: And the MIC (Pseudomonas aeruginosa; GN4925, BBRI Pa-No. 45, GN4925, Table 2)?
A: 6.3 µg/mL

Q: What about the ED50 (E. coli Juhl) of the same molecule?
A: 1.8 mg/kg

Q: What about the MIC (P. vulgaris) of the same molecule?
A: 100 µg/mL

Q: And the MIC (S. enteritidis)?
A: 3.1 µg/mL

Q: What about the MIC (P. morganii) of the same molecule?
A: > 100 µg/mL

Q: And the MIC (E. cloacae; E. cloacae (1st line))?
A: 12.5 µg/mL

Q: And the MIC (E. cloacae; E. cloacae (2nd line))?
A: 50 µg/mL

Q: What about the MIC (E. cloacae; E. cloacae (3rd line)) of the same molecule?
A: 25 µg/mL
